These results are taken from US20250333424A1, “ANTIVIRAL COMPOUNDS” (Gilead Sciences, Inc., priority 2024, published 2025).

A word on the pEC50: it is −log10 of the EC50, conventionally taken in molar units. High values mean a low EC50, low ones a high EC50.

Assay [1] concerns monocytic THP1 cells infected with HIV VSV-G pseudotyped GFP-NEF reporter virus. Description: cells. It is filed as cell-based. The note with it: Human immunodeficiency virus 1, THP-1, 24 h.
Assay [2] has as its system CD4 cells, isolated from healthy donor PMBCs, infected with HIV VSV-G pseudotyped GFP-GAG reporter virus. As to the kind of experiment: tissue or blood. The following applies: Homo sapiens, 72 h. Format: cell-based.

Each structure is given as a SMILES string. pEC50: −log10 of the molar value.

In the case of `Cc1cc(/C=C/C#N)cc(C)c1Oc1nc(NC23CC(C#N)(C2)C3)nc2nc(-c3cnn(C)c3)[nH]c12` [Compound 64, (E)-3-((6-(4-(2-cyanovinyl)-2,6-dimethylphenoxy)-8-(1-methyl-1H-pyrazol-4-yl)-7H-purin-2-yl)amino)bicyclo[1.1.1]pentane-1-carbonitrile], the negative-log EC50 (pEC50) in assay [1] is 6.91; in assay [2], 6.56.

Consider `Cc1cc(/C=C/C#N)cc(C)c1Oc1nc(NC23CC(C#N)(C2)C3)nc2c1ncn2C(C)C` [Compound 113, (E)-3-((6-(4-(2-cyanovinyl)-2,6-dimethylphenoxy)-9-isopropyl-9H-purin-2-yl)amino)bicyclo[1.1.1]pentane-1-carbonitrile], for which the pEC50 in assay [1] was 6.77; in assay [2], 6.99.

With `Cc1cc(/C=C/C#N)cc(C)c1Oc1nc(NC23CC(C#N)(C2)C3)nc2nc(C)n(C)c12` [Compound 97, (E)-3-((6-(4-(2-cyanovinyl)-2,6-dimethylphenoxy)-7,8-dimethyl-7H-purin-2-yl)amino)bicyclo[1.1.1]pentane-1-carbonitrile], the pEC50 in assay [1] is 7.49; in assay [2] it was 7.29.

For the compound `Cc1cc(/C=C/C#N)cc(C)c1Oc1nc(NC23CC(C#N)(C2)C3)nc2c1c(C)nn2C` [Compound 148, (E)-3-((4-(4-(2-cyanovinyl)-2,6-dimethylphenoxy)-1,3-dimethyl-1H-pyrazolo[3,4-d]pyrimidin-6-yl)amino)bicyclo[1.1.1]pentane-1-carbonitrile], the results for the pEC50 in assay [1] and in assay [2] were 7.32 and 7.39, respectively.

For `Cc1cc(/C=C/C#N)cc(C)c1Oc1nc(NC23CC(C#N)(C2)C3)nc2scnc12` [Compound 56, (E)-3-((7-(4-(2-cyanovinyl)-2,6-dimethylphenoxy)thiazolo[5,4-d]pyrimidin-5-yl)amino)bicyclo[1.1.1]pentane-1-carbonitrile], the values for the negative-log EC50 (pEC50) in assay [1] and in assay [2] were 6.85 and 7.01, respectively.

`Cc1cc(/C=C/C#N)cc(C)c1Nc1nc(NC23CC(C#N)(C2)C3)nc2scnc12` [Compound 23, (E)-3-((7-((4-(2-cyanovinyl)-2,6-dimethylphenyl)amino)thiazolo[5,4-d]pyrimidin-5-yl)amino)bicyclo[1.1.1]pentane-1-carbonitrile]: the pEC50 is 7.50 in assay [1] and 7.77 in assay [2].

For `Cc1cc(/C=C/C#N)cc(C)c1OC1=NC(NC23CC(C#N)(C2)C3)=NC2N=CN(C)C12` (centres unmarked) [Compound 89, (E)-3-((6-(4-(2-cyanovinyl)-2,6-dimethylphenoxy)-7-methyl-4,5-dihydro-7H-purin-2-yl)amino)bicyclo[1.1.1]pentane-1-carbonitrile], the pEC50 in assay [1] is 7.61; in assay [2], 7.78.

In the case of `Cc1cc(/C=C/C#N)cc(C)c1Oc1nc(NC23CC(C#N)(C2)C3)nc2c1nnn2C` [Compound 129, 3-[[7-[4-[(E)-2-cyanovinyl]-2,6-dimethyl-phenoxy]-3-methyl-triazolo[4,5-d]pyrimidin-5-yl]amino]bicyclo[11.1.1]pentane-1-carbonitrile], the pEC50 in assay [1] is 6.77; in assay [2], 6.88.

Take `COc1ccc(Cn2cnc3c(Oc4c(C)cc(/C=C/C#N)cc4C)nc(NC45CC(C#N)(C4)C5)nc32)cc1` [Compound 42, (E)-3-((6-(4-(2-cyanovinyl)-2,6-dimethylphenoxy)-9-(4-methoxybenzyl)-9H-purin-2-yl)amino)bicyclo[1.1.1]pentane-1-carbonitrile]: the values for the pEC50 in assay [1] and in assay [2] were 6.29 and 6.05, respectively.

Turning to `COc1ccc(Cn2cnc3nc(NC45CC(C#N)(C4)C5)nc(Oc4c(C)cc(/C=C/C#N)cc4C)c32)cc1` [Compound 43, (E)-3-((6-(4-(2-cyanovinyl)-2,6-dimethylphenoxy)-7-(4-methoxybenzyl)-7H-purin-2-yl)amino)bicyclo[1.1.1]pentane-1-carbonitrile], the pEC50 in assay [1] was 7.04; in assay [2], 7.06.

On to `Cc1cc(/C=C/C#N)cc(C)c1Oc1nc(NC23CC(C#N)(C2)C3)nc2cc[nH]c12` [Compound 115, (E)-3-((4-(4-(2-cyanovinyl)-2,6-dimethylphenoxy)-5H-pyrrolo[3,2-d]pyrimidin-2-yl)amino)bicyclo[1.1.1]pentane-1-carbonitrile], for which the values for the negative-log EC50 (pEC50) in assay [1] and in assay [2] were 7.00 and 6.95, respectively.

Regarding `Cc1cc(/C=C/C#N)cc(C)c1Oc1nc(NC23CC(C#N)(C2)C3)nc2c1CCN2` [Compound 130, 3-[[4-[4-[(E)-2-cyanovinyl]-2,6-dimethyl-phenoxy]-6,7-dihydro-5H-pyrrolo[2,3-d]pyrimidin-2-yl]amino]bicyclo[11.1.1]pentane-1-carbonitrile], the pEC50 in assay [1] was 6.66; in assay [2] it was 7.25.

As for `Cc1cc(/C=C/C#N)cc(C)c1Oc1nc(NC23CC(C#N)(C2)C3)nc2[nH]nc(C#N)c12` [Compound 112, (E)-6-((3-cyanobicyclo[1.1.1]pentan-1-yl)amino)-4-(4-(2-cyanovinyl)-2,6-dimethylphenoxy)-1H-pyrazolo[3,4-d]pyrimidine-3-carbonitrile], the pEC50 in assay [1] is 6.13; in assay [2] it was 6.53.

`Cc1cc(/C=C/C#N)cc(C)c1Oc1nc(NC23CC(C#N)(C2)C3(F)F)nc2nn(C)cc12` [Compound 76, (E)-3-((4-(4-(2-cyanovinyl)-2,6-dimethylphenoxy)-2-methyl-2H-pyrazolo[3,4-d]pyrimidin-6-yl)amino)-2,2-difluorobicyclo[1.1.1]pentane-1-carbonitrile]: the values for the pEC50 in assay [1] and in assay [2] were 7.60 and 7.71, respectively.

In the case of `Cc1cc(/C=C/C#N)cc(C)c1Oc1nc(NC23CC(C#N)(C2)C3)nc2[nH]ncc12` [Compound 10, (E)-3-((4-(4-(2-cyanovinyl)-2,6-dimethylphenoxy)-1H-pyrazolo[3,4-d]pyrimidin-6-yl)amino)bicyclo[1.1.1]pentane-1-carbonitrile], the values for the pEC50 in assay [1] and in assay [2] were 7.18 and 7.26, respectively.

Regarding `Cc1cc(/C=C/C#N)cc(C)c1Oc1nc(NC23CC(C#N)(C2)C3)nc2onc(C)c12` [Compound 142, (E)-3-((4-(4-(2-cyanovinyl)-2,6-dimethylphenoxy)-3-methylisoxazolo[5,4-d]pyrimidin-6-yl)amino)bicyclo[1.1.1]pentane-1-carbonitrile], the pEC50 was 7.62 in assay [1] and 7.75 in assay [2].

Turning to `Cc1nc2nc(NC34CC(C#N)(C3)C4)nc(Oc3c(C)cc(/C=C/C#N)cc3C)c2[nH]1` [Compound 14, (E)-3-((6-(4-(2-cyanovinyl)-2,6-dimethylphenoxy)-8-methyl-7H-purin-2-yl)amino)bicyclo[1.1.1]pentane-1-carbonitrile], the figures for the pEC50 in assay [1] and in assay [2] were 7.09 and 7.07, respectively.

Regarding `Cc1cc(/C=C/C#N)cc(C)c1Oc1nc(NC23CC(C#N)(C2)C3)nc2[nH]nc(C)c12` [Compound 119, 3-[[4-[4-[(E)-2-cyanovinyl]-2,6-dimethyl-phenoxy]-3-methyl-1H-pyrazolo[3,4-d]pyrimidin-6-yl]amino]bicyclo[11.1.1]pentane-1-carbonitrile], the pEC50 is 7.72 in assay [1] and 7.77 in assay [2].

As for `Cc1nc2nc(NC34CC(C#N)(C3)C4)nc(Oc3c(C)cc(/C=C/C#N)cc3C)c2s1` [Compound 124, 3-[[7-[4-[(E)-2-cyanovinyl]-2,6-dimethyl-phenoxy]-2-methyl-thiazolo[4,5-d]pyrimidin-5-yl]amino]bicyclo[11.1.1]pentane-1-carbonitrile], the figures for the pEC50 in assay [1] and in assay [2] were 7.21 and 7.57, respectively.

Regarding `Cc1cc(/C=C/C#N)cc(C)c1Oc1nc(NC23CC(C#N)(C2)C3)nc2c1cnn2C` [Compound 128, 3-[[4-[4-[(E)-2-cyanovinyl]-2,6-dimethyl-phenoxy]-1-methyl-pyrazolo[3,4-d]pyrimidin-6-yl]amino]bicyclo[11.1.1]pentane-1-carbonitrile], the results for the negative-log EC50 (pEC50) in assay [1] and in assay [2] were 6.88 and 6.97, respectively.

As for `Cc1cc(/C=C/C#N)cc(C)c1Oc1nc(NC23CC(C#N)(C2)C3)nc2nc(C3CC3)[nH]c12` [Compound 49, (E)-3-((6-(4-(2-cyanovinyl)-2,6-dimethylphenoxy)-8-cyclopropyl-7H-purin-2-yl)amino)bicyclo[1.1.1]pentane-1-carbonitrile], the pEC50 in assay [1] was 6.96; in assay [2], 6.78.

In the case of `Cc1nc2c(Nc3c(C)cc(/C=C/C#N)cc3C)nc(NC34CC(C#N)(C3)C4)nc2s1` [Compound 55, (E)-3-((7-((4-(2-cyanovinyl)-2,6-dimethylphenyl)amino)-2-methylthiazolo[5,4-d]pyrimidin-5-yl)amino)bicyclo[1.1.1]pentane-1-carbonitrile], the values for the pEC50 in assay [1] and in assay [2] were 6.89 and 7.59, respectively.
